# Assay results taken from ChEMBL document CHEMBL5380807, “Imidazo[1,2-a]Pyridine Derivatives as Novel Dual-Target Inhibitors of ABCB1 and ABCG2 for Reversing Multidrug Resistance” (J Med Chem, 2023).
# Activity calls are given as the source filed them. The rule behind the calls is not given here.
# Tests used:
# [1] = Toxicity in BALB/c mouse xenografted with human K562/A02 cells overexpressing ABCB1 assessed as body weight loss at 1 mg/kg, ip BW for 14 days; assay type: organism-based; conditions: in vivo, 336 h, time 14 day
# [2] = Toxicity in BALB/c mouse xenografted with human K562/A02 cells overexpressing ABCB1 assessed as body weight loss at 1 mg/kg, ip BW for 14 days in presence of verapamil; assay type: organism-based; conditions: in vivo, 336 h, time 14 day
# K562/A02 [3] = assay: Antitumor activity against human K562/A02 cells overexpressing ABCB1 xenografted in BALB/c mouse assessed as tumor growth inhibition at 1 mg/kg, ip BW for 14 days in presence of N-(4-(3-((4-Phenyipiperazin-1-yl)methyl)imidazo[l,2-a]pyridin-2-yl)phenyl)-2-(4-(4-(trifluoromethoxy)phenyl)piperazin-1-yl)acetamide; assay type: functional, organism-based; conditions: time 14.0 day
# K562 [4] = assay: Antitumor activity against human K562 cells xenografted in BALB/c mouse assessed as tumor growth inhibition at 1 mg/kg, ip BW for 14 days in presence of N-(4-(3-((4-Phenyipiperazin-1-yl)methyl)imidazo[l,2-a]pyridin-2-yl)phenyl)-2-(4-(4-(trifluoromethoxy)phenyl)piperazin-1-yl)acetamide; assay type: functional, organism-based; conditions: time 14.0 day
# [5] = Toxicity in BALB/c mouse xenografted with human K562/A02 cells overexpressing ABCB1 assessed as body weight loss at 1 mg/kg, ip BW for 14 days in presence of N-(4-(3-((4-Phenyipiperazin-1-yl)methyl)imidazo[l,2-a]pyridin-2-yl)phenyl)-2-(4-(4-(trifluoromethoxy)phenyl)piperazin-1-yl)acetamide; assay type: organism-based; conditions: in vivo, 336 h, time 14 day
# K562 [6] = assay: Antitumor activity against human K562 cells xenografted in BALB/c mouse assessed as tumor growth inhibition at 1 mg/kg, ip BW for 14 days in presence of verapamil; assay type: functional, organism-based; conditions: time 14.0 day
# K562/A02 [7] = assay: Antitumor activity against human K562/A02 cells overexpressing ABCB1 xenografted in BALB/c mouse assessed as tumor growth inhibition at 1 mg/kg, ip BW for 14 days; assay type: functional, organism-based; conditions: time 14.0 day
# [8] = Toxicity in BALB/c mouse xenografted with human K562 cells assessed as body weight loss at 1 mg/kg, ip BW for 14 days in presence of verapamil; assay type: organism-based; conditions: in vivo, 336 h, time 14 day
# [9] = Toxicity in BALB/c mouse xenografted with human K562 cells assessed as body weight loss at 1 mg/kg, ip BW for 14 days in presence of N-(4-(3-((4-Phenyipiperazin-1-yl)methyl)imidazo[l,2-a]pyridin-2-yl)phenyl)-2-(4-(4-(trifluoromethoxy)phenyl)piperazin-1-yl)acetamide; assay type: organism-based; conditions: in vivo, 336 h, time 14 day
# K562 [10] = assay: Antitumor activity against human K562 cells xenografted in BALB/c mouse assessed as tumor growth inhibition at 1 mg/kg, ip BW for 14 days; assay type: functional, organism-based; conditions: time 14.0 day
# [11] = Toxicity in BALB/c mouse xenografted with human K562 cells assessed as body weight loss at 1 mg/kg, ip BW for 14 days; assay type: organism-based; conditions: in vivo, 336 h, time 14 day
# [12] = Cytotoxicity against human K562/A02 cells overexpressing ABCB1 assessed as decrease in cell survival rate incubated for 72 hrs by MTS assay; assay type: toxicity, cell-based
smiles,measurement,setting,value
COc1cccc2c1C(=O)c1c(O)c3c(c(O)c1C2=O)C[C@@](O)(C(=O)CO)C[C@@H]3O[C@H]1C[C@H](N)[C@H](O)[C@H](C)O1.Cl [DOXORUBICIN HYDROCHLORIDE],Activity,[1],Non-Toxic
same,Activity,[2],Non-Toxic
same,Activity,K562/A02 [3],Active
same,Activity,K562 [4],inactive
same,Activity,[5],Non-Toxic
same,Activity,K562 [6],inactive
same,Activity,K562/A02 [7],inactive
same,Activity,[8],Non-Toxic
same,Activity,[9],Non-Toxic
same,Activity,K562 [10],Active
same,Activity,[11],Toxic
same,IC50 at 72 h,[12],58.6 µM
